Reference: the supplement of paper PMC10307832

Key:
Assay in all cases: relative viability (nuclei count vs DMSO), 5 days (fraction); higher = more cells survive
[1] = compound: Cc1nc(C(=O)NCC(=O)O)c(O)c2ccc(Oc3ccccc3)cc12 [FG-4592] + COc1cccc2cc(-c3nc([C@H]4CC[C@H](C(=O)O)CC4)n4ncnc(N)c34)[nH]c12 [OSI-027] (partner 0.5 µM)
Procedure, shortened: (§1)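 Lung cancer cell lines in 1536-well plates were dosed by pin tool the day after seeding, either with one drug alone or with a fixed anchor-drug dose plus five library-drug doses (not always all listed) in √10 steps. After 5 days, cells were fixed and their nuclei stained in one step (final 0.05% Triton X-100, 1% formaldehyde, 1 ug/ml Hoechst), then counted on 4× images. Relative viability is the nuclei count in treated wells divided by that in vehicle wells. Values are medians of duplicate plates.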

[2] = compound: Cc1nc(C(=O)NCC(=O)O)c(O)c2ccc(Oc3ccccc3)cc12 [FG-4592] + O=C(CCCCCCC(=O)Nc1ccccc1)NO [Vorinostat] (partner 1 µM)
Procedure, shortened: as §1

[3] = compound: Cc1nc(C(=O)NCC(=O)O)c(O)c2ccc(Oc3ccccc3)cc12 [FG-4592] + Cc1nc(NC(=O)N2CCC[C@H]2C(N)=O)sc1-c1ccnc(C(C)(C)C(F)(F)F)c1 [Alpelisib] (partner 2 µM)
Procedure, shortened: as §1

[4] = compound: Cc1nc(C(=O)NCC(=O)O)c(O)c2ccc(Oc3ccccc3)cc12 [FG-4592] + C[C@]1(O)C[C@@H](c2nc(-c3ccc4ccc(-c5ccccc5)nc4c3)c3c(N)nccn32)C1 [Linsitinib] (partner 1 µM)
Procedure, shortened: as §1

Cell Line | relative viability ([1]; first compound 0.08 µM) | relative viability ([1]; first compound 0.253 µM) | relative viability ([1]; first compound 0.8 µM) | relative viability ([1]; first compound 2.53 µM) | relative viability ([1]; first compound 8 µM) | relative viability ([2]; first compound 0.08 µM) | relative viability ([2]; first compound 0.253 µM) | relative viability ([2]; first compound 0.8 µM) | relative viability ([2]; first compound 2.53 µM) | relative viability ([2]; first compound 8 µM) | relative viability ([3]; first compound 0.08 µM) | relative viability ([3]; first compound 0.253 µM) | relative viability ([3]; first compound 0.8 µM) | relative viability ([3]; first compound 2.53 µM) | relative viability ([3]; first compound 8 µM) | relative viability ([4]; first compound 0.08 µM) | relative viability ([4]; first compound 0.253 µM) | relative viability ([4]; first compound 0.8 µM) | relative viability ([4]; first compound 2.53 µM) | relative viability ([4]; first compound 8 µM)
NCI-H1650 | 0.523 | 0.603 | 0.839 | 0.621 | 0.634 | 0.762 | 0.53 | 0.502 | 0.55 | 0.465 | – | – | – | – | – | – | – | – | – | –
BEN | 0.222 | 0.287 | 0.315 | 0.313 | 0.299 | 0.558 | 0.566 | 0.459 | 0.546 | 0.547 | 0.831 | 0.807 | 0.753 | 0.965 | 0.701 | 0.85 | 0.748 | 0.692 | 0.934 | 0.602
EMC-BAC-2 | 0.338 | 0.407 | 0.339 | 0.333 | 0.344 | 0.43 | 0.467 | – | 0.561 | 0.366 | 0.745 | 0.718 | 0.705 | 0.764 | 0.713 | 0.846 | 0.767 | 0.767 | 0.836 | 0.833
LU99A | 0.332 | 0.276 | 0.296 | 0.267 | 0.27 | 0.464 | 0.523 | – | 0.506 | 0.423 | 0.497 | 0.492 | 0.402 | 0.579 | 0.532 | 0.488 | 0.565 | 0.46 | 0.483 | 0.548
ABC-1 | 0.548 | 0.482 | 0.47 | 0.501 | 0.4 | 1.14 | 1.01 | – | 1.14 | 1.03 | 1.17 | – | 1.17 | 0.958 | 0.866 | 0.92 | – | 0.722 | 0.8 | 0.844
NCI-H2170 | 0.788 | 0.66 | 0.652 | 0.693 | 0.531 | 0.825 | 0.747 | 0.627 | 0.785 | 0.608 | 0.823 | 0.801 | 0.794 | 0.826 | 0.581 | – | – | – | – | –
NCI-H1299 | – | – | – | – | – | – | – | – | – | – | 1.06 | 0.999 | 1.05 | 1.04 | 1.04 | 0.979 | 0.939 | 0.956 | 0.989 | 0.964
EBC-1 | – | – | – | – | – | – | – | – | – | – | 0.895 | 0.816 | 0.736 | 0.693 | 0.814 | 0.88 | 0.905 | 0.824 | 0.862 | 0.825
NCI-H2347 | 0.235 | – | 0.491 | 0.3 | 0.46 | 0.519 | 0.421 | 0.52 | 0.41 | 0.585 | 0.988 | – | 0.85 | 1.16 | 1.11 | 1.09 | – | 0.822 | 0.927 | 1.01
NCI-H1993 | 0.508 | 0.504 | 0.546 | 0.512 | 0.559 | 1.06 | 0.69 | – | 0.642 | 0.814 | 0.689 | 0.614 | 0.622 | 0.647 | 0.669 | 0.808 | 0.646 | 0.713 | 0.728 | 0.706
NCI-H322M | 0.507 | 0.543 | 0.557 | 0.488 | 0.469 | – | 0.823 | 0.772 | 0.898 | 0.822 | 0.194 | 0.797 | 0.595 | 0.941 | 0.852 | 0.858 | 0.914 | 0.807 | 0.92 | 0.861
NCI-H838 | 0.372 | 0.31 | 0.389 | 0.289 | 0.357 | 0.742 | 0.729 | 0.696 | 0.839 | 0.705 | 0.877 | 0.933 | 0.98 | 1.01 | 0.816 | 1.1 | 0.941 | 1.01 | 1.04 | 0.938
HARA | 0.334 | 0.335 | 0.434 | 0.392 | 0.234 | 0.554 | 0.556 | 0.507 | 0.662 | 0.607 | 0.805 | 0.728 | – | 0.945 | 0.827 | 0.955 | 0.881 | – | 0.996 | 1.03
NCI-H2342 | 0.594 | 0.648 | 0.631 | 0.585 | 0.57 | 0.701 | 0.721 | 0.697 | 0.681 | 0.651 | – | – | – | – | – | – | – | – | – | –
NCI-H1792 | 0.803 | 0.69 | 0.794 | 0.575 | 0.735 | – | – | – | – | – | 0.78 | 0.635 | 0.544 | 0.619 | 0.721 | 0.522 | 0.411 | 0.487 | 0.577 | 0.567
ChaGo-K-1 | 0.577 | 0.545 | 0.532 | 0.471 | 0.413 | 0.694 | 0.819 | 0.687 | 0.758 | 0.693 | – | – | – | – | – | – | – | – | – | –
A549 | – | – | – | – | – | – | – | – | – | – | 0.831 | 0.626 | 0.823 | 0.759 | 0.686 | 0.476 | 0.549 | – | 0.546 | 0.588
NCI-H1563 | 0.78 | 0.785 | 0.718 | 0.701 | 0.606 | – | – | – | – | – | 1.03 | 0.949 | 0.939 | 0.936 | 0.845 | 1.27 | 1.24 | 1.19 | 1.27 | 1.22
SW 900 | 0.424 | 0.546 | 0.493 | 0.491 | 0.534 | – | 0.388 | – | 0.548 | 0.469 | – | – | – | – | – | – | – | – | – | –
IA-LM | – | – | – | – | – | 0.826 | 0.83 | 0.814 | 0.943 | 1.04 | 0.827 | 0.707 | 0.878 | 0.54 | 0.433 | 0.578 | 0.597 | 0.565 | 0.376 | 0.476
NCI-H1703 | – | – | – | – | – | – | – | – | – | – | 0.255 | 0.354 | 0.295 | 0.326 | 0.353 | 0.837 | 0.55 | 0.679 | 0.755 | 0.617
NCI-H1648 | 0.275 | 0.285 | 0.302 | 0.258 | 0.28 | 0.481 | 0.683 | – | 0.349 | 0.708 | – | – | – | – | – | – | – | – | – | –
